One series can be described thus: solvent given as SMILES. As to conditions: in C1CCCCC1.
Consider `O=C(O)c1ccccc1Nc1ccccc1`, for which the emission maximum stood at 430 nm.

In turn, `CC1(C)c2ccccc2N(c2cc3c4ccccc4n4c5ccccc5c(c2)c34)c2ccccc21` came in with an emission maximum of 416.92 nm.

`c1ccc(-c2c3c(c(-c4ccccc4)c4c2-c2ccccc2C4)-c2ccccc2C3)cc1` returned an emission maximum of 375 nm.

On to `CC1=[N+]2C(=C(/C=C/c3ccc(C(F)(F)F)cc3)c3ccc(C)n3[B-]2(F)F)C=C1c1cc2n(c1)[B-](F)(F)[N+]1=CC=CC1=C2c1c(C)cc(C)cc1C`, for which the emission maximum is 704 nm.

The series is the same for the next values; noted with them: in C1CCOC1.
Take `O=C(O)c1ccccc1Nc1ccccc1`: the emission maximum is reported as 434 nm.

Consider `c1ccc(-n2c3c(c4c2-c2ccccc2C42c4ccccc4-c4ccccc42)C2(c4ccccc4-c4ccccc42)c2ccccc2-3)cc1`, for which the emission maximum amounted to 408 nm.

As to `CC1(C)c2ccccc2N(c2cc3c4ccccc4n4c5ccccc5c(c2)c34)c2ccccc21`, the emission maximum is given as 470.91 nm.

The compound `CSc1ccc(/C=C/c2cnc3ccccc3n2)cc1` yielded an emission maximum of 467 nm.

Compound `CCCCCCCCCCCCn1c(-c2cc(-c3nc4ccccc4n3CCCCCCCCCCCC)cc(-c3nc4ccccc4n3CCCCCCCCCCCC)c2)nc2ccccc21` registered an emission maximum of 367.4 nm.

`CCn1c2ccc(/C=C/c3ccc4c(c3)c3cc(-c5nc6ccccc6s5)ccc3n4CC)cc2c2cc(-c3nc4ccccc4s3)ccc21` gave an emission maximum of 408 nm.

Consider `Cc1csc2[n+]1[B-](F)(F)OC(c1ccc(N(C)C)cc1)=N2`, for which the emission maximum is recorded as 453 nm.

The series is the same for the next values; noted with them: in C1COCCO1.
`O=C(O)c1ccccc1Nc1ccccc1`: the emission maximum came out at 432 nm.

On to `CC1(C)c2ccccc2N(c2ccc(-c3ccc4c(c3)c3cc(-c5ccc(N6c7ccccc7C(C)(C)c7ccccc76)cc5)ccc3c3nc(C#N)c(C#N)nc43)cc2)c2ccccc21`, for which the emission maximum was 668.71 nm.

The compound `CC(C)(C)NS(=O)(=O)c1ccc2c(c1)C(=O)/C(=C1\Sc3ccc(S(=O)(=O)NC(C)(C)C)cc3C1=O)S2` gave an emission maximum of 589 nm.

The series is the same for the next values; noted with them: in CC#N.
In turn, `O=C(O)c1ccccc1Nc1ccccc1` yielded an emission maximum of 398 nm.

`Cc1ccc(S(=O)(=O)Nc2cc(-c3ccc(N(C)C)cc3)sc2/C=C/c2ccccc2)cc1` yielded an emission maximum of 604 nm.

Turning to `CSc1ccc(/C=C/c2cnc3ccccc3n2)cc1`, the emission maximum was 499 nm.

`COC(=O)c1cc(=O)n(Cc2ccccc2)c2cc(-c3ccc(OC)cc3)sc12` came in with an emission maximum of 477 nm.

Compound `Cc1cc2c(ccc3c[n+](C)c(C)cc32)c[n+]1C` came in with an emission maximum of 419 nm.

For `CCn1c2ccc(/C=C/c3ccc4c(c3)c3cc(-c5nc6ccccc6s5)ccc3n4CC)cc2c2cc(-c3nc4ccccc4s3)ccc21`, the emission maximum was 491 nm.

The compound `Cc1csc2[n+]1[B-](F)(F)OC(c1ccc(N(C)C)cc1)=N2` yielded an emission maximum of 466 nm.

Compound `CCOC(=O)CN1C(=O)C2=C(c3ccccc3)N(CC(=O)OCC)C(=O)C2=C1c1ccccc1` showed an emission maximum of 512 nm.

The same series, now with this note: in CC(C)(C)c1ccc(-n2c3ccc([Si](c4ccccc4)(c4ccccc4)c4ccccc4)cc3c3cc([Si](c4ccccc4)(c4ccccc4)c4ccccc4)ccc32)cc1.
Turning to `Cc1cc(C)c(C)c(B(c2c(C)c(C)cc(C)c2C)c2c(C)c(C)c(N3c4ccccc4Oc4ccccc43)c(C)c2C)c1C`, the emission maximum was determined as 478 nm.

Still in this series, the particulars now being: in CCCCCC.
Compound `CC1=CC(C)=[N+]2C1=Cc1c3ccccc3c(C#Cc3cccs3)n1[B-]2(F)F` displayed an emission maximum of 628 nm.

In turn, `CC1(C)c2ccccc2N(c2ccc(-c3ccc4c(c3)c3cc(-c5ccc(N6c7ccccc7C(C)(C)c7ccccc76)cc5)ccc3c3nc(C#N)c(C#N)nc43)cc2)c2ccccc21` showed an emission maximum of 507.36 nm.

In turn, `CC(C)[Si](C#Cc1c2cc3ccccc3cc2c(C#C[Si](C(C)C)(C(C)C)C(C)C)c2nc3ccccc3nc12)(C(C)C)C(C)C` came in with an emission maximum of 699 nm.

The series is the same for the next values; noted with them: in CCCCCCC.
In the case of `CSc1ccc(/C=C/c2cnc3ccccc3n2)cc1`, the emission maximum amounted to 426 nm.

Staying with this series, now noted: in CCCCCCCCO
`CC1=CC(C)=[N+]2C1=Cc1c3ccccc3c(C#Cc3cccs3)n1[B-]2(F)F` showed an emission maximum of 636 nm.

Staying with this series, now noted: in CCO.
`COc1ccc(C(=O)OCc2c(C)c(=O)n3c(=O)c(C)c(C)n23)cc1` had an emission maximum of 461 nm.

Take `O=Cc1ccc(-c2ccc(O)c(-c3nc4ccccc4s3)c2)s1`: the emission maximum was determined as 558 nm.

The same series, now with this note: in CCOC(C)=O.
Turning to `O=C(O)c1ccccc1Nc1ccccc1`, the emission maximum came to 434 nm.

In turn, `CC1=CC(C)=[N+]2C1=Cc1c3ccccc3c(C#Cc3cccs3)n1[B-]2(F)F` showed an emission maximum of 632 nm.

In the case of `CC1=[N+]2C(=C(/C=C/c3ccc(C(F)(F)F)cc3)c3ccc(C)n3[B-]2(F)F)C=C1c1cc2n(c1)[B-](F)(F)[N+]1=CC=CC1=C2c1c(C)cc(C)cc1C`, the emission maximum is listed as 710 nm.

Turning to `CCn1c2ccc(/C=C/c3ccc4c(c3)c3cc(-c5nc6ccccc6s5)ccc3n4CC)cc2c2cc(-c3nc4ccccc4s3)ccc21`, the emission maximum worked out at 412 nm.

The same series, now with this note: in CN(C)C=O.
Compound `O=C(O)c1ccccc1Nc1ccccc1` gave an emission maximum of 386 nm.

Compound `CC1=CC(C)=[N+]2C1=Cc1c3ccccc3c(C#Cc3cccs3)n1[B-]2(F)F` had an emission maximum of 639 nm.

In turn, `C(=C\c1ccc(-c2nnc(-c3ccccc3)o2)cc1)/c1ccc(-c2nnc(-c3ccccc3)o2)cc1` gave an emission maximum of 415 nm.

In turn, `CC(C)(C)NS(=O)(=O)c1ccc2c(c1)C(=O)/C(=C1\Sc3ccc(S(=O)(=O)NC(C)(C)C)cc3C1=O)S2` displayed an emission maximum of 604 nm.

`CCOC(=O)C(Cc1ccc(O[Si]2(Oc3ccc(CC(NC(C)=O)C(=O)OCC)cc3)n3c4c5ccccc5c3/N=C3N=C(/N=c5/c6ccccc6/c(n52)=N/C2=NC(=N\4)/c4ccccc42)c2ccccc2\3)cc1)NC(C)=O` (stereo not given) yielded an emission maximum of 686 nm.

`CCn1c2ccc(/C=C/c3ccc4c(c3)c3cc(-c5nc6ccccc6s5)ccc3n4CC)cc2c2cc(-c3nc4ccccc4s3)ccc21` yielded an emission maximum of 449 nm.

Staying with this series, now noted: in CO.
In turn, `O=C(O)c1ccccc1Nc1ccccc1` had an emission maximum of 390 nm.

`CC(C)(C)c1ccc(C(C)(C)C)c(N2C(=O)c3cccc4c(-c5ccc(-c6ccccc6)s5)ccc(c34)C2=O)c1` yielded an emission maximum of 572 nm.

Still in this series, the particulars now being: in CS(C)=O.
The compound `CSc1ccc(/C=C/c2cnc3ccccc3n2)cc1` registered an emission maximum of 513 nm.

`CC(C)(C)c1ccc(C(C)(C)C)c(N2C(=O)c3cccc4c(-c5ccc(-c6ccccc6)s5)ccc(c34)C2=O)c1` came in with an emission maximum of 557 nm.

Turning to `CC(C)(C)NS(=O)(=O)c1ccc2c(c1)C(=O)/C(=C1\Sc3ccc(S(=O)(=O)NC(C)(C)C)cc3C1=O)S2`, the emission maximum came out at 618 nm.
